Test systems include A498; CAKI-1; CCRF-CEM; COLO 205; DU-145; HCT-15; HT-29; K562; MCF7; MOLT-4; NCI-H226; NCI/ADR-RES; OVCAR-4; SF-295; SK-MEL-2; SK-MEL-5; SK-OV-3; SNB-19; UACC-62; UO-31.
Holding throughout (test): NCI anticancer screen, dose series, 48 h

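Test compounds were applied to cells in 96-well plates for 48 hours at 5 doses. Here, GI50 denotes the concentration required for 50% inhibition of growth.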 Activity calls are given as the source filed them. No stated cut-off is given here; in the data, active = GI50 up to about 1.1 µM and inactive = higher.

Take `Cc1cccc(/C=N/NC(=S)NCCc2ccccn2)n1`: the GI50 is 34 µM (inactive) in the test on A498; 26.7 µM (inactive) with CAKI-1; 9.89 µM (inactive) in the test on CCRF-CEM; 31.4 µM (inactive) in the test with COLO 205; 22.3 µM (inactive) with DU-145; 26.5 µM in the test on HCT-15. Besides, the GI50 in the test with HT-29 is 27.9 µM (inactive); in the test on K562 it was 30.8 µM (inactive); in the test on MCF7, 37.2 µM (inactive); with MOLT-4, 18.9 µM (inactive); in the test with NCI-H226 it was 16.1 µM (inactive); in the test with NCI/ADR-RES it was 31.8 µM (inactive). Further, the GI50 in the test on OVCAR-4 is 42.2 µM (inactive); in the test with SF-295, 24.6 µM (inactive); in the test on SK-MEL-2, 31.2 µM (inactive); in the test on SK-MEL-5 it was 26.1 µM (inactive); in the test with SK-OV-3, 14.1 µM (inactive); in the test on SNB-19, 37.1 µM (inactive). The results for the GI50 in the test with UACC-62 and in the test on UO-31 were 22.5 µM (inactive) and 16.9 µM (inactive), respectively.
Take `N#CCN(Cc1ccccc1)[C@H]1CCC[C@]1(O)/C=C/c1ccc2c(c1)OCO2`: the GI50 is 37.2 µM (inactive) in the test with A498; 36.1 µM (inactive) in the test on CAKI-1; 16.4 µM (inactive) in the test on CCRF-CEM; 15.6 µM (inactive) in the test on COLO 205; 62.1 µM (inactive) in the test on DU-145; 22.2 µM in the test with HCT-15. For the same compound, the GI50 in the test with HT-29 was 16 µM (inactive); with K562, 24.5 µM (inactive); in the test with MCF7, 18.7 µM (inactive); with MOLT-4, 21.7 µM (inactive); with NCI-H226 it was 18.4 µM (inactive); in the test with NCI/ADR-RES, 19.3 µM (inactive). Moreover, the GI50 was 29 µM (inactive) with OVCAR-4; 16.4 µM (inactive) in the test with SF-295; 20 µM (inactive) in the test on SK-MEL-2; 16.5 µM (inactive) in the test with SK-MEL-5; 46.6 µM (inactive) in the test with SK-OV-3; 25.2 µM (inactive) in the test on SNB-19. In addition, the figures for the GI50 in the test with UACC-62 and in the test on UO-31 were 16.1 µM (inactive) and 27.2 µM (inactive), respectively.
On to `O=C1CSC(c2cc3cc(Br)ccc3nc2Cl)N1c1ccc(Cl)cc1` (stereo not given), for which the GI50 is 36 µM (inactive) in the test on A498; 18.5 µM (inactive) in the test with CAKI-1; 7.71 µM (inactive) in the test on CCRF-CEM; 17.9 µM (inactive) in the test with COLO 205; 34.4 µM (inactive) with DU-145; 16.8 µM in the test with HCT-15. Further, the GI50 in the test on HT-29 is 32.9 µM (inactive); in the test with K562, 7.33 µM (inactive); in the test on MCF7, 17.9 µM (inactive); in the test with MOLT-4, 17.4 µM (inactive); in the test with NCI-H226, 39.2 µM (inactive); in the test on NCI/ADR-RES, 20.5 µM (inactive). The GI50 is 23.2 µM (inactive) in the test on OVCAR-4; 12.9 µM (inactive) in the test on SF-295; 14.7 µM (inactive) in the test with SK-MEL-2; 14 µM (inactive) in the test on SK-MEL-5; 43.3 µM (inactive) in the test with SK-OV-3; 42.7 µM (inactive) in the test with SNB-19. Besides, the GI50 was 5.87 µM (inactive) in the test with UACC-62 and 32.3 µM (inactive) in the test on UO-31.
As to `c1ccc(CNc2ncnc3nn[nH]c23)cc1`, the GI50 with A498 was 34 µM (inactive); with CAKI-1, > 100 µM (inactive); with CCRF-CEM it was > 100 µM (inactive); with COLO 205, > 100 µM (inactive); in the test with DU-145, > 100 µM (inactive); in the test with HCT-15 it was more than 100 µM. For the same compound, the GI50 with HT-29, in the test with K562, with MCF7, in the test with MOLT-4, in the test on NCI-H226 and with NCI/ADR-RES was > 100 µM (inactive) throughout. Also, the GI50 in the test on OVCAR-4, in the test with SF-295, in the test with SK-MEL-2, in the test on SK-MEL-5, in the test on SK-OV-3 and in the test with SNB-19 was > 100 µM (inactive) each time. The GI50 in the test on UACC-62 was > 100 µM (inactive); with UO-31 it was 91 µM (inactive).
In the case of `COc1ccc(S(=O)(=O)O)cc1NS(=O)(=O)c1ccc(C)cc1`, the GI50 is > 100 µM (inactive) with A498; > 100 µM (inactive) in the test with CAKI-1; > 100 µM (inactive) with CCRF-CEM; > 100 µM (inactive) with COLO 205; > 100 µM (inactive) with DU-145; more than 100 µM with HCT-15. Further, the GI50 with HT-29, with K562, in the test on MCF7, in the test with MOLT-4, in the test with NCI-H226 and with NCI/ADR-RES was > 100 µM (inactive) each time. Besides, the GI50 with OVCAR-4, with SF-295, with SK-MEL-2, in the test with SK-MEL-5, with SK-OV-3 and in the test on SNB-19 was > 100 µM (inactive) throughout. For the same compound, the GI50 in the test with UACC-62 and with UO-31 was > 100 µM (inactive) throughout.
`O=C(O)C1CC(c2ccccc2)=NN1c1ccccc1` (stereo not given): the GI50 in the test on A498 was 51.4 µM (inactive); in the test on CAKI-1 it was 43.6 µM (inactive); with CCRF-CEM, 48.4 µM (inactive); in the test on COLO 205, 50.9 µM (inactive); in the test with DU-145, 96.8 µM (inactive); with HCT-15, 34 µM. Also, the GI50 in the test on HT-29 was 34.2 µM (inactive); in the test with K562 it was 47.5 µM (inactive); with MCF7 it was 48 µM (inactive); in the test on MOLT-4 it was 31.7 µM (inactive); with NCI-H226 it was 36.8 µM (inactive); with NCI/ADR-RES it was 48.5 µM (inactive). The GI50 with OVCAR-4 is 67.6 µM (inactive); in the test on SF-295 it was 64.6 µM (inactive); with SK-MEL-2 it was 69.5 µM (inactive); in the test on SK-MEL-5, 34.4 µM (inactive); with SK-OV-3, > 100 µM (inactive); in the test with SNB-19, > 100 µM (inactive). The GI50 in the test with UACC-62 is > 100 µM (inactive); in the test with UO-31, 39.9 µM (inactive).

Values taken from ChEMBL document CHEMBL1201862, “PubChem BioAssay data set” (2004).
